Assay results taken from ChEMBL document CHEMBL5154808, “Novel β-Hairpin Antimicrobial Peptides Containing the β-Turn Sequence of -RRRF- Having High Cell Selectivity and Low Incidence of Drug Resistance” (J Med Chem, 2022).
Activity calls are given as the source filed them. No cut-off for these calls is given here.

Tests used:
[1] = system: Staphylococcus aureus; test: Antimicrobial activity against Staphylococcus aureus ATCC 25923 assessed as reduction in bacterial growth incubated for 18 hrs in presence of 4.5 mM KCl by CLSI protocol based broth microdilution method (reference value: 8 uM); type: functional
[2] = system: Escherichia coli; test: Antimicrobial activity against rifampicin-resistant Escherichia coli ATCC 25922; type: functional
[3] = system: Staphylococcus aureus; test: Bactericidal activity against Staphylococcus aureus ATCC 25923 assessed as time required to kill bacteria at 2 times MIC by time-killing assay; type: functional
[4] = system: Staphylococcus aureus; test: Antibacterial activity against Staphylococcus aureus ATCC 25923 infected BALB/c mouse assessed as reduction in alveolar constriction at 5 to 10 mg/kg, ip measured after 24 hrs by hematoxylin and eosin staining based assay; type: functional, organism-based; conditions: dose 5-10 mg/kg
[5] = system: Staphylococcus aureus; test: Antimicrobial activity against Staphylococcus aureus ATCC 25923 assessed as breakage of cell membrane measured after 2 hrs by SEM analysis; type: functional, organism-based
[6] = system: Escherichia coli; test: Antimicrobial activity against Escherichia coli ATCC 25922 assessed as reduction of bacterial growth at 2 times MIC incubated for 18 hrs in presence of trypsin by CLSI protocol based broth microdilution method; type: functional, organism-based
[7] = system: Escherichia coli; test: Antimicrobial activity against Escherichia coli ATCC 25922 assessed as reduction in bacterial growth incubated for 18 hrs in presence of 1 mM MgCl2 by CLSI protocol based broth microdilution method (reference value: 8 uM); type: functional
[8] = system: Escherichia coli; test: Antimicrobial activity against Escherichia coli ATCC 25922 assessed as reduction in bacterial growth incubated for 18 hrs in presence of 4 uM FeCl3 by CLSI protocol based broth microdilution method (reference value: 8 uM); type: functional
[9] = system: Escherichia coli; test: Synergistic antibacterial activity against rifampicin-resistant Escherichia coli ATCC 25922 assessed as fractional inhibitory concentration index incubated for 18 hrs in presence of rifampicin by checker board assay; type: functional
[10] = system: Escherichia coli; test: Synergistic antibacterial activity against Escherichia coli ATCC 25922 assessed as fractional inhibitory concentration index incubated for 18 hrs in presence of rifampicin by checker board assay; type: functional
[11] = system: Staphylococcus epidermidis; test: Antimicrobial activity against Staphylococcus epidermidis ATCC 12228 assessed as reduction of bacterial growth incubated for 18 hrs by CLSI protocol based broth microdilution method; type: functional
[12] = system: Pseudomonas aeruginosa; test: Antimicrobial activity against Pseudomonas aeruginosa ATCC 27853 assessed as reduction of bacterial growth incubated for 18 hrs by CLSI protocol based broth microdilution method; type: functional
[13] = Stability in mouse serum assessed as half life at 10 mM measured upto 360 mins by RP-HPLC analysis; type: ADME, cell-free
[14] = system: Escherichia coli; test: Antimicrobial activity against Escherichia coli ATCC 25922 assessed as reduction in bacterial growth incubated for 18 hrs in presence of 10% serum by CLSI protocol based broth microdilution method (reference value: 8 uM); type: functional
[15] = system: Klebsiella pneumoniae; test: Antimicrobial activity against Klebsiella pneumoniae ATCC 700603 assessed as reduction of bacterial growth incubated for 18 hrs by CLSI protocol based broth microdilution method; type: functional
[16] = system: Staphylococcus aureus; test: Antimicrobial activity against Staphylococcus aureus ATCC 25923 assessed as reduction of bacterial growth at 2 times MIC incubated for 18 hrs in presence of trypsin by CLSI protocol based broth microdilution method; type: functional, organism-based
[17] = system: Staphylococcus aureus; test: Antimicrobial activity against Staphylococcus aureus ATCC 25923 assessed as reduction in bacterial growth incubated for 18 hrs in presence of 1 mM MgCl2 by CLSI protocol based broth microdilution method (reference value: 8 uM); type: functional
[18] = system: Escherichia coli; test: Antimicrobial activity against Escherichia coli ATCC 25922 assessed as adherence to cell membrane measured after 30 mins by SEM analysis; type: functional, organism-based
[19] = system: Escherichia coli; test: Antimicrobial activity against Escherichia coli ATCC 25922 assessed as cell membrane breakage measured after 30 mins by SEM analysis; type: functional, organism-based
[20] = system: Escherichia coli; test: Antimicrobial activity against kanamycin-resistant Escherichia coli ATCC 25922; type: functional
[21] = system: Staphylococcus aureus; test: Antimicrobial activity against Staphylococcus aureus ATCC 25923 assessed as fold change in MIC incubated for 18 hrs in presence of 10% serum by CLSI protocol based broth microdilution method relative to control; type: functional
[22] = system: Staphylococcus aureus; test: Antimicrobial activity against Staphylococcus aureus ATCC 25923 assessed as reduction in bacterial growth incubated for 18 hrs in presence of 10% serum by CLSI protocol based broth microdilution method (reference value: 8 uM); type: functional
[23] = system: Staphylococcus aureus; test: Synergistic antibacterial activity against kanamycin-resisitant Staphylococcus aureus ATCC 25923 assessed as fractional inhibitory concentration index incubated for 18 hrs in presence of kanamycin by checker board assay; type: functional
[24] = system: Staphylococcus aureus; test: Antimicrobial activity against Staphylococcus aureus ATCC 25923 assessed as reduction in bacterial growth incubated for 18 hrs in presence of 4 uM FeCl3 by CLSI protocol based broth microdilution method (reference value: 8 uM); type: functional
[25] = system: Escherichia coli; test: Antimicrobial activity against Escherichia coli ATCC 25922 assessed as reduction in bacterial growth incubated for 18 hrs in presence of 4.5 mM KCl by CLSI protocol based broth microdilution method (reference value: 4 uM); type: functional
[26] = system: Staphylococcus aureus; test: Antimicrobial activity against Staphylococcus aureus ATCC 25923 assessed as reduction in bacterial growth incubated for 18 hrs in presence of 150 mM NaCl by CLSI protocol based broth microdilution method (reference value: 4 uM); type: functional
[27] = system: Staphylococcus aureus; test: Antimicrobial activity against Staphylococcus aureus ATCC 25923 assessed as reduction in bacterial growth incubated for 18 hrs in presence of 4 uM FeCl3 by CLSI protocol based broth microdilution method (reference value: 4 uM); type: functional
[28] = system: Staphylococcus aureus; test: Synergistic antibacterial activity against rifampicin-resistant Staphylococcus aureus ATCC 25923 assessed as fractional inhibitory concentration index incubated for 18 hrs in presence of rifampicin by checker board assay; type: functional
[29] = system: Staphylococcus aureus; test: Antimicrobial activity against Staphylococcus aureus ATCC 25923 assessed as reduction in bacterial growth incubated for 18 hrs in presence of 10% serum by CLSI protocol based broth microdilution method (reference value: 4 uM); type: functional
[30] = system: Staphylococcus aureus; test: Antimicrobial activity against Staphylococcus aureus ATCC 25923 assessed as reduction in bacterial growth incubated for 18 hrs in presence of 1 mM MgCl2 by CLSI protocol based broth microdilution method (reference value: 4 uM); type: functional
[31] = system: Staphylococcus aureus; test: Antimicrobial activity against Staphylococcus aureus ATCC 25923 assessed as reduction in bacterial growth incubated for 18 hrs in presence of 4.5 mM KCl by CLSI protocol based broth microdilution method (reference value: 4 uM); type: functional
[32] = system: Staphylococcus aureus; test: Synergistic antibacterial activity against Staphylococcus aureus ATCC 25923 assessed as fractional inhibitory concentration index incubated for 18 hrs in presence of polymyxin B by checker board assay; type: functional
[33] = Acute toxicity in Kunming mouse assessed as congestion in lungs at 77 mg/kg, ip by H and E staining based analysis; type: organism-based; conditions: in vivo
[34] = system: Escherichia coli; test: Antimicrobial activity against Escherichia coli ATCC 25922 assessed as reduction in bacterial growth incubated for 18 hrs in presence of 1 mM MgCl2 by CLSI protocol based broth microdilution method (reference value: 4 uM); type: functional
[35] = system: Escherichia coli; test: Antimicrobial activity against Escherichia coli ATCC 25922 assessed as reduction in bacterial growth incubated for 18 hrs in presence of 150 mM NaCl by CLSI protocol based broth microdilution method (reference value: 4 uM); type: functional

Row | Substance | MIC [2] [µM] | Time [3] [min] | Activity [4] | Activity [5] | fractional inhibitory concentration index (FICI) [10] | MIC [11] [µM] | MIC [12] [µM] | half-life at 10000 µM [13] [h] | MIC [15] [µM] | Activity [18] | Activity [19] | MIC [20] [µM] | fold change (FC) [21] | fractional inhibitory concentration index (FICI) [23] | also measured
1 | H-KWKWKRRRFKWKWK-NH2 | 4 | 90 | Active | Active | 0.625 | 4 | 4 | 2.68 | 16 | Active | Active | 4 | 2 | 0.5 | MIC [1]: 8 µM; Activity [6]: Active; MIC [7]: 8 µM; MIC [8]: 8 µM; fractional inhibitory concentration index (FICI) [9]: 0.5625; MIC [14]: 8 µM; Activity [16]: Active; MIC [17]: 8 µM; MIC [22]: 16 µM; MIC [24]: 8 µM
2 | H-RIRIRRRRFRIRIR-NH2 | 4 | 30 | Active | Active | 1 | 4 | 4 | 7.7 | 8 | Active | Active | 4 | 2 | 0.5625 | MIC [25]: 8 µM; MIC [26]: 8 µM; MIC [27]: 4 µM; fractional inhibitory concentration index (FICI) [28]: 0.375; MIC [29]: 8 µM; MIC [30]: 8 µM; MIC [31]: 4 µM; fractional inhibitory concentration index (FICI) [32]: 0.375; Activity [33]: Toxic; MIC [34]: 4 µM; MIC [35]: 16 µM
